Test results: ChEMBL document CHEMBL6092217 (Eur J Med Chem, 2024)
pIC50: −log10 of the molar value.

Experiments:
HT-29 = assay: Antiproliferative activity against human HT-29 cells assessed as cell viability incubated for 72 hrs by MTT assay; format: functional, cell-based; conditions: HT-29, 72 h
MCF7 = assay: Antiproliferative activity against human MCF7 cells assessed as cell viability incubated for 72 hrs by MTT assay; format: functional, cell-based; conditions: MCF7, 72 h
HepG2 = assay: Antiproliferative activity against human HepG2 cells assessed as cell viability incubated for 72 hrs by MTT assay; format: functional, cell-based; conditions: HepG2, 72 h
PC-3 = assay: Antiproliferative activity against human PC-3 cells assessed as cell viability incubated for 72 hrs by MTT assay; format: functional, cell-based; conditions: PC-3, 72 h
RKO = assay: Antiproliferative activity against human RKO cells assessed as cell viability incubated for 72 hrs by MTT assay; format: functional, cell-based
MDA-MB-231 = assay: cells; conditions: Homo sapiens, MDA-MB-231, 72 h
Description: Antiproliferative activity against human MDA-MB-231 cells assessed as cell viability incubated for 72 hrs by MTT assay

Row | Compound | pIC50 (HT-29) | pIC50 (MCF7) | pIC50 (HepG2) | pIC50 (PC-3) | pIC50 (RKO) | pIC50 (MDA-MB-231)
1 | CN(c1ccc(C(F)(F)F)cc1)c1nc(/C=C/c2ccccc2)nc2ccccc12 | < 5.00 | < 5.00 | < 5.00 | < 5.00 | < 5.00 | < 5.00
2 | COc1ccc(N(C)c2nc(/C=C/c3cccc(F)c3)nc3cccc(F)c23)cc1 | 6.68 | 6.41 | 6.31 | 6.40 | 6.66 | 6.37
3 | COc1ccc(N(C)c2nc(/C=C/c3ccc(C)cc3)nc3ccccc23)cc1 | 6.34 | 5.51 | 5.52 | 6.34 | 5.77 | 5.59
4 | COc1ccc(N(C)c2nc(/C=C/c3ccc([N+](=O)[O-])cc3)nc3ccccc23)cc1 | 5.49 | 5.25 | 5.15 | 5.55 | 5.37 | 5.02
5 | COc1ccc(N(C)c2nc(/C=C/c3ccccc3)nc3ccccc23)cc1 | 6.60 | 6.64 | 5.92 | 6.47 | 6.60 | 5.87
6 | COc1ccc(N(C)c2nc(/C=C/c3cccc(F)c3)nc3ccccc23)cc1 | 6.80 | 6.59 | 6.62 | 7.05 | 6.77 | 5.90
7 | COc1ccc(N(C)c2nc(/C=C/c3cccc(Cl)c3)nc3ccccc23)cc1 | 6.15 | 5.97 | 5.76 | 5.66 | 5.86 | 5.38
8 | COc1ccc(N(C)c2nc(/C=C/c3cccc(F)c3)nc3cccnc23)cc1 | 6.70 | 5.93 | 6.17 | 6.48 | 6.29 | 5.54
9 | COc1ccc(N(C)c2nc(/C=C/c3ccc(OC)c(OC)c3OC)nc3ccccc23)cc1 | 6.77 | 6.39 | 6.28 | 6.31 | 6.66 | 6.22
10 | COc1ccc(/C=C/c2nc(N(C)c3ccc(OC)cc3)c3ccccc3n2)cc1 | 6.05 | 5.44 | 5.35 | 5.56 | 6.03 | 5.74
11 | CN(c1ccccc1)c1nc(/C=C/c2ccccc2)nc2ccccc12 | < 5.00 | < 5.00 | < 5.00 | < 5.00 | < 5.00 | < 5.00
12 | COc1ccc(N(C)c2nc(/C=C/c3ccccc3)nc3ccccc23)c(OC)c1 | 6.12 | 5.72 | 5.09 | 5.56 | 6.19 | 5.24
13 | COc1ccc(OC)c(N(C)c2nc(/C=C/c3ccccc3)nc3ccccc23)c1 | < 5.00 | < 5.00 | < 5.00 | < 5.00 | < 5.00 | < 5.00
14 | CN(c1ccc(OC(F)(F)F)cc1)c1nc(/C=C/c2ccccc2)nc2ccccc12 | < 5.00 | < 5.00 | < 5.00 | < 5.00 | < 5.00 | < 5.00
15 | O=c1[nH]cc(F)c(=O)[nH]1 [FLUOROURACIL] | < 5.00 | < 5.00 | < 5.00 | < 5.00 | < 5.00 | < 5.00
16 | COc1cccc(OC)c1N(C)c1nc(/C=C/c2ccccc2)nc2ccccc12 | < 5.00 | < 5.00 | < 5.00 | < 5.00 | < 5.00 | < 5.00
17 | COc1ccc(N(C)c2nc(/C=C/c3cccc(F)c3)nc3ccc(F)cc23)cc1 | 6.34 | 6.47 | 6.14 | 6.44 | 6.21 | 5.60

Row | Compound | pIC50 (HT-29) | pIC50 (MCF7) | pIC50 (HepG2) | pIC50 (PC-3) | pIC50 (RKO) | pIC50 (MDA-MB-231)
18 | COc1ccc(N(C)c2nc(/C=C/c3ccc(Cl)cc3)nc3ccccc23)cc1 | 6.51 | 6.21 | 6.03 | 6.21 | 6.34 | 6.08
19 | COc1ccc(N(C)c2nc(/C=C/c3cccc(OC)c3OC)nc3ccccc23)cc1 | 6.06 | 5.39 | 5.32 | 5.96 | 5.87 | 5.30
20 | CN(c1ccc2c(c1)OCO2)c1nc(/C=C/c2ccccc2)nc2ccccc12 | 5.55 | 5.79 | 5.94 | 5.97 | 6.14 | 5.43
21 | COc1ccc(N(C)c2nc(/C=C/c3ccc(Cl)cc3Cl)nc3ccccc23)cc1 | 5.32 | < 5.00 | < 5.00 | 5.84 | 5.75 | < 5.00
22 | COc1cc(N(C)c2nc(/C=C/c3ccccc3)nc3ccccc23)cc(OC)c1OC | < 5.00 | < 5.00 | < 5.00 | < 5.00 | < 5.00 | < 5.00
23 | CN(c1ccc2c(c1)OCCO2)c1nc(/C=C/c2ccccc2)nc2ccccc12 | 6.17 | 6.49 | 5.46 | 5.84 | 6.39 | 5.69
24 | COc1ccc(N(C)c2nc(/C=C/c3ccc(OC)c(OC)c3)nc3ccccc23)cc1 | 5.70 | 5.46 | 5.56 | 5.84 | 5.56 | 5.14
25 | COc1ccc(N(C)c2nc(/C=C/c3cccc([N+](=O)[O-])c3)nc3ccccc23)cc1 | 6.52 | 5.83 | 6.27 | 6.39 | 6.31 | 6.09
26 | COc1ccc(N(C)c2nc(C)nc3ccccc23)cc1 [VERUBULIN] | 8.15 | 7.85 | 7.89 | 8.00 | 8.05 | 7.64
27 | COc1cc(OC)cc(N(C)c2nc(/C=C/c3ccccc3)nc3ccccc23)c1 | < 5.00 | < 5.00 | < 5.00 | < 5.00 | < 5.00 | < 5.00
28 | COc1ccc(N(C)c2nc(/C=C/c3ccccc3)nc3ccccc23)cc1OC | 6.27 | 5.69 | 5.55 | 5.55 | 6.20 | 5.15
29 | CN(c1ccc2occc2c1)c1nc(/C=C/c2ccccc2)nc2ccccc12 | 5.55 | 5.59 | 5.40 | 5.13 | 5.80 | 5.18
30 | COc1ccc(N(C)c2nc(/C=C/c3cccc(Cl)c3Cl)nc3ccccc23)cc1 | 5.85 | < 5.00 | < 5.00 | 5.52 | 5.24 | < 5.00
31 | COc1ccc(N(C)c2nc(/C=C/c3cccc(OC)c3)nc3ccc(F)cc23)cc1 | 6.55 | 6.10 | 6.44 | 6.19 | 6.62 | 5.97
32 | COc1ccc(N(C)c2nc(/C=C/c3ccccc3OC)nc3ccccc23)cc1 | 5.09 | < 5.00 | < 5.00 | 6.13 | < 5.00 | < 5.00
33 | COc1ccc(N(C)c2nc(/C=C/c3cccc(OC)c3)nc3cccc(F)c23)cc1 | 6.62 | 6.34 | 6.39 | 6.44 | 6.82 | 6.10
